Experiments:
Type in all cases: cell-based
[1] = tested on: Normal Human Dermal Fibroblast (NHDF); assay: fibroblast to myofibroblast differentiation of NHDF (markers αSMA, PI16, ACTC1 by RT-qPCR, αSMA positive cells)
Method: (§1) NHDF, isolated from human explants, were purchased from Promocell. NHDF were cultivated in DMEM-F12 (Invitrogen), supplemented with 10% FCS (Invitrogen, 5 μg/mL of insulin and 1 ng/mL of b-FGF (PromoKine)).
(§2) For experiments, cells were deprived of insulin and b-FGF during 48 hours. Then, the cells were cultivated on collagen coated culture plates in DMEM-F12, supplemented with 10% FCS, 10 ng/mL of TGF-β1 (Promocell) for 4 days. Four points were tested in order to appreciate the effect of exudate on fibroblast differentiation: untreated cells (T−E−), fibroblasts treated with TGF-β1 (T+E−), cells treated with exudate (T−E+) and finally fibroblasts treated with TGF-β1 and exudate at the same time (T+E+).
The efficiency of fibroblast differentiation was estimated by analyzing the expression of the myofibroblast marker alpha smooth muscle actin (αSMA).
(§3) After four days of experiment, treated fibroblasts were lysed with TRIzol Reagent (Invitrogen) and stored at −80° C. Then RNA was purified using chloroform and precipitated by isopropanol. Total RNA was quantified on the NanoDrop 2000c Spectrophotometer (Thermo Scientific). Reverse transcription of 500 ng total RNA to cDNA was done with oligot dT (Invitrogen) using SuperScript III RT (Invitrogen) and RNAse OUT (Invitrogen). The cDNA was store at −20° C.
(§4) Quantitative real-time PCR (RT-qPCR) was done using 5 μL of 1:20 diluted cDNA on the LightCycler480 system (Roche) using Maxima SYBR Green qPCR Master Mix (Fermentas). Forward and reverse primers for αSMA were designed by Eurofins (MWG, αSMA forward: […] (SEQ ID NO:9), αSMA reverse: […] (SEQ ID NO:10)) and a 100 μM stock was stored at −20° C. Forward and reverse primer pairs were used for each RT-qPCR reaction. The cycling conditions were as follows: an initial 95° C. for 10 minutes, followed by 45 cycles of 95° C. for 15 sec, 58° C. for 30 sec, 72° C. for 20 sec. LightCycler 480 SW 1.5 was used to evaluate the TM curves, to determine the Cp and to approximate the relative concentration for each amplification reaction.
Cells grown in collagen coated culture dishes, and treated as previously described, were fixed with 4% paraformaldehyde (PFA) in PBS for 15 minutes and permeabilized with 2.5% Triton X-100 (Euromedex, 2000-B) in PBS for 3 minutes. After saturation with 5% BSA in PBS, cells were stained for α-SMA (Abcam, ab5694) and for DNA (DAPI). As secondary antibody, CyTM3 conjugated anti rabbit (GE Healthcare, PA43004) was used. […] To estimate the percentage of fibroblast differentiation due to the different treatments, the total number of cells per field was determined by the DAPI, and myofibroblasts, differentiated fibroblasts, were counted using the α-SMA staining. […]

[2] = tested on: Normal Human Dermal Fibroblast (NHDF); assay: transcription factor mRNA levels in treated NHDF by RT-qPCR; details: Gant 61
Method: FIG. 6: Graphic representation of the TCF4 (a), EGR2 (b), SOX9 (c), STAT4 (d), FOXS1 (e), PPARG (f), MAF (g), MEOX2 (h), and SIX2 (i) mRNA levels after NHDF (donor A) treatment for 48 h (light grey) or 72 h (dark grey) either with mock siRNA or siRNA directed against different TF mRNA (SOX9, EGR2, TCF4, or FOXS1) and concomitantly treated with TGF-β. For all graphs, the mock siRNA treated with TGF-β (T+E) condition was set to 100% for each time of treatment (48 h and 72 h).
FIG. 10: Graphic representation of the αSMA, GLI1, SOX9 and MAF mRNA levels assessed by RT-qPCR of NHDFs treated by Gant 61.
as §3, §4

[3] = tested on: Normal Human Dermal Fibroblast (NHDF); assay: ex vivo model of chronic wounds: NHDF differentiation in presence of chronic wound exudate; details: TGFβ, exudate and Am580 versus same condition without Am580
Method: as §1
To collect exudates, two patients with mixed ulcers were recruited. For patient selection, it was decided to exclude any other comorbidity factor potentially involved in wound etiology: diabetes, peripheral arterial diseases, malnutrition. Exudates were collected from negative pressure therapy. All the exudates were centrifuged at 1,500×g for 3 minutes to remove cell debris. The supernatant was filtered and stored at −80° C. until use. Aliquots were used to determine protein concentration according to BCA method (Sigma).
as §2
For the chronic or non-healing wound model, chronic wound exudates were added to cell cultures (500 μg/mL of total proteins of exudate). […]

Compound	differentiation shown by α-SMA mRNA ([1]; Gant 61 4 μM)	MAF mRNA [2]	SOX9 mRNA [2]	expression of GLI1 (mRNA) [2]	differentiation followed with αSMA mRNA ([1]; Am580 5 nM in presence of TGFβ)	differentiation followed with ACTC1 mRNA ([1]; Am580 in presence of TGFβ)	differentiation followed with PI16 mRNA ([1]; Am580 in presence of TGFβ)	PI16 mRNA [3]	αSMA mRNA [3]
CN(C)c1ccccc1CN1CCCN(Cc2ccccc2N(C)C)C1c1ccncc1 [Gant 61]	upregulation	decrease	increase	upregulate	–	–	–	–	–
CC1(C)CCC(C)(C)c2cc(C(=O)Nc3ccc(C(=O)O)cc3)ccc21 [Am580, 4-[(5,6,7,8-Tetrahydro-5,5,8,8-tetramethyl-2-naphthalenyl)carboxamido]benzoic acid]	–	–	–	–	increase differentiation	increase differentiation	increase differentiation	increase	increase

— patent US10071097B2, “Molecular targets for the treatment of wounds, in particular chronic wounds” (URGO RECHERCHE INNOVATION ET DEVELOPPEMENT, priority 2013, dated 2018)
